In PMC6321117, “Sulfonamide Inhibition Studies of a New β-Carbonic Anhydrase from the Pathogenic Protozoan Entamoeba histolytica” (International Journal of Molecular Sciences, 2018) one finds Ki data, which are given here for seven compounds.

The target of test [1] is T1, EhiCA (β-carbonic anhydrase) (Entamoeba histolytica, UniProt C4LXK3).
T1 sequence (C4LXK3 1-188): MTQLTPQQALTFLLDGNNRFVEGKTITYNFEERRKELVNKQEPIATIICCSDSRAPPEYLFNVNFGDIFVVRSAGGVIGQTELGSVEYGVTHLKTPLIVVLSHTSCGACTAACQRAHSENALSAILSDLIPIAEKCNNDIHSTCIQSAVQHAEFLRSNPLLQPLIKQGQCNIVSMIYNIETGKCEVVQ
As to the kind of experiment: biochemical. Here is the method: An Sx.18Mv-R Applied Photophysics (Oxford, UK) stopped-flow instrument has been used to assay the catalytic activity of various CA isozymes for CO2 hydration reaction. […] The uncatalyzed rates were determined in the same manner and subtracted from the total observed rates. Stock solutions of inhibitors (0.1 mM) were prepared in distilled-deionized water, and dilutions up to 1 nM were done thereafter with the assay buffer. Enzyme and inhibitor solutions were pre-incubated together for 15 min before assay, to allow for the formation of the enzyme–inhibitor complex. The inhibition constants were obtained by non-linear least-squares methods using PRISM 3 and the Cheng–Prusoff equation, as reported earlier.

Another test deals with hCA I. Conditions: human recombinant isozyme, α class, stopped flow CO2 hydrase assay; cited from earlier work.

Where two headings read alike, the source gives them in different places.

In test [1], `Nc1ccc(S(N)(=O)=O)cc1` [Compound 2] displayed a Ki of 6.01 µM. As for `NS(=O)(=O)c1cccc(S(N)(=O)=O)c1` [Compound 3], the inhibition constant (Ki) at hCA I is 0.079 µM.

Regarding `Cc1ccc(S(N)(=O)=O)cc1` [Compound 4], the Ki on hCA I was 78.5 µM.

In test [1], `NS(=O)(=O)c1ccc(C(=O)O)cc1` [Compound 18, 4-carboxy-benzenesulfonamide] registered a Ki of 0.383 µM. Still for that read-out and setting: under `NS(=O)(=O)c1cc(Cl)c(Cl)c(S(N)(=O)=O)c1` [DCP, dichlorophenamide] stands 0.79 µM. As to `O=C1NS(=O)(=O)c2ccccc21` [SAC, saccharin], the Ki on hCA I is 18.5 µM. `CC1(C)O[C@@H]2[C@@H](CO[C@@]3(COS(N)(=O)=O)OC(C)(C)O[C@@H]23)O1` [TPM, topiramate]: in test [1] (KI EhiCA, β class, stopped-flow CO2 hydrase assay, 3 different assays, errors 5–10%), the Ki was found to be 3.1 µM.

The Ki is the dissociation constant of the complex between target and ligand, obtained from inhibition or displacement.
